Results taken from patent US11739053B2, “P62-ZZ chemical inhibitor” (ID4PHARMA, LLC, priority 2011, dated 2023).
Values after ≈ are worked out from the molar mass of the structure shown.

Assays:
in vivo = conditions: mouse, iv
Experimental: FIG. 10A-D: 10A. Single dose acute toxicity study by Up/Down Methods. Body weights of the mice following dosing. FIG. 10B. Mean body weights of mice during multidose MTD study. Data are shown as mean±SD for 5 mice. FIG. 10C. Median body weight of mice during multidose MTD study. FIG. 10D. Plasma concentrations p62-ZZ antagonist in pilot mice after 100 mg/kg IV.
Preliminary in vivo studies of the p62-ZZ antagonist #3 were performed 5 to determine the toxicity, multiple doses MTD and plasma concentration of the antagonist given IV. For the pilot PK study the prototype p62-ZZ antagonist (compound #3) was used as an internal standard for Mass spectroscopy assays.

[1] = tested on: CD11b(+) mononuclear cells from wild type mice; assay: OCL formation by wild type mouse osteoclast precursors, TRACP stain; format: cell-based; conditions: 7 days, 50 ng/ml TNFα
Experimental: FIG. 7A-C: 7A. CFU-Blast colony formation. Human CD34(+) cells were cultured with p62-ZZ inhibitor #3 and 1 ng/ml of rhIL-3 IL-6 and SCF for 7 days. Data are shown as the mean±SD (n=5). FIG. 7B. Human OCL formation. Non-adherent mononuclear cells (2.5×10^7 cells/10-cm dish) derived from human bone marrow samples were cultured in α-MEM containing 10% FCS, 100 pg/ml recombinant human GM-CSF(R & D) for 7 days. Then the cells were collected and plated (cell density is 1.0×10^6 cells/nil) in α-MEM containing 20% horse serum with 1 ng/ml TNFα. Half-media changes were performed twice a week containing various concentrations of the p62-ZZ inhibitor #3. The cultures were incubated for a total of 2 weeks at 37° C. with 5% CO2 and 95% humidity. The osteoclasts were stained with the 23C6 antibody which recognizes CD51/61. Data are shown as the mean±SD (n=5). *P<0.01 compared to vehicle treated cultures. 7C. OCL formation by wild type and p62−/− mouse osteoclast precursors. Data is shown as the mean±SD (n=4). *: P<0.01 compared to no-inhibitor cultures. The effects of p62-ZZ inhibitor #3 on osteoclast formation by p62^−/− OCL precursors were examined to determine the specificity of the effects of the p62-ZZ inhibitor #3 on osteoclast precursors. CDIIb(+) mononuclear cells from wild type and p62″/_mice were used. […] OCLs were scored as TRAP positive cells containing 3 or more nuclei. […]

VCAM-1 expression = assay: TNF-α induced VCAM-1 expression by marrow stromal cells, Western blot; format: cell-based, human; conditions: 3 h pre-treatment, TNFα 48 hours
Experimental: FIG. 5A-B: 5A. VCAM-1 expression using Western blot analysis. Normal human stromal cells were cultured with/without TNF and p62-ZZ inhibitors (#1-6) for 48 hours. The cell lysates were collected and VCAM-1 expression was measured using an anti-VCAM-1 antibody (Santa Cruz). FIG. 5B. IL-6 production by human and mouse marrow stromal cells by ELISA. Normal human and mouse marrow stromal cells were cultured with/without TNFα and p62-ZZ inhibitors (#1-6) for 48 hours. The cell culture media were collected and IL-6 production measured using an IL-6 ELISA kit (R &D). Data are shown as the means (n=2). Normal human or mouse marrow stromal cells were maintained in 10% FBS-IMDM and treated with p62-ZZ inhibitors (#1-6) for 3 hours. Then TNFα or vehicle was added for 48 hours. Cell lysates were collected and VCAM-1 expression measured by Western blot using an anti-VCAM-1 antibody (Santa Cruz). The culture media were collected and IL-6 production was measured using an IL-6 ELISA kit (R&D Company).

[2] = tested on: Human CD34(+) mononuclear cells; assay: CFU-Blast colony formation; format: cell-based; conditions: all concentrations, 7 days
Experimental: FIG. 7A-C: 7A. CFU-Blast colony formation. Human CD34(+) cells were cultured with p62-ZZ inhibitor #3 and 1 ng/ml of rhIL-3 IL-6 and SCF for 7 days. Data are shown as the mean±SD (n=5). FIG. 7B. Human OCL formation. Non-adherent mononuclear cells (2.5×10^7 cells/10-cm dish) derived from human bone marrow samples were cultured in α-MEM containing 10% FCS, 100 pg/ml recombinant human GM-CSF(R & D) for 7 days. Then the cells were collected and plated (cell density is 1.0×10^6 cells/nil) in α-MEM containing 20% horse serum with 1 ng/ml TNFα. Half-media changes were performed twice a week containing various concentrations of the p62-ZZ inhibitor #3. The cultures were incubated for a total of 2 weeks at 37° C. with 5% CO2 and 95% humidity. The osteoclasts were stained with the 23C6 antibody which recognizes CD51/61. Data are shown as the mean±SD (n=5). *P<0.01 compared to vehicle treated cultures. 7C. OCL formation by wild type and p62−/− mouse osteoclast precursors. Data is shown as the mean±SD (n=4). *: P<0.01 compared to no-inhibitor cultures. Whether p62-ZZ inhibitor #3 affects hematopoesis since osteoclast precursors are derived from hematopoietic cells was examined. […] Colonies were scored after 7 days of culture using an inverted microscope.

IL-6 production = assay: TNF-α induced IL-6 production by marrow stromal cells, ELISA; format: cell-based, human
Experimental: FIG. 5A-B: 5A. VCAM-1 expression using Western blot analysis. Normal human stromal cells were cultured with/without TNF and p62-ZZ inhibitors (#1-6) for 48 hours. The cell lysates were collected and VCAM-1 expression was measured using an anti-VCAM-1 antibody (Santa Cruz). FIG. 5B. IL-6 production by human and mouse marrow stromal cells by ELISA. Normal human and mouse marrow stromal cells were cultured with/without TNFα and p62-ZZ inhibitors (#1-6) for 48 hours. The cell culture media were collected and IL-6 production measured using an IL-6 ELISA kit (R &D). Data are shown as the means (n=2).
Normal human or mouse marrow stromal cells were maintained in 10% FBS-IMDM and treated with p62-ZZ inhibitors (#1-6) for 3 hours. Then TNFα or vehicle was added for 48 hours. Cell lysates were collected and VCAM-1 expression measured by Western blot using an anti-VCAM-1 antibody (Santa Cruz). The culture media were collected and IL-6 production was measured using an IL-6 ELISA kit (R&D Company).

Q: What does the source list for `OCCNCc1ccc(OCc2ccccc2)c(OCc2ccccc2)c1` [Compound 3, 2-[[3,4-bis(phenylmethoxy)phenyl]methylamino]ethanol]?
A: half-life (in vivo): 4 h; IC50 ([1]; Mus musculus, Osteoclast, 168 h, read-out: IC50 concentration for OCL formation, wild type cells): 1 ng/mL (≈ 2.75 nM); OCL formation in wild type mice cell cultures ([1]; various concentrations): blocked OCL formation dose dependently; VCAM-1 expression induced by TNF-α blocked compared to vehicle (VCAM-1 expression): 30%; CFU-Blast colony formation [2]: do not inhibit; IL-6 production induced by TNF-α blocked compared to vehicle (IL-6 production; marrow stromal cells, 3 h pre-treatment, TNFα 48 hours): 90%; IL-6 production by TNF-α stimulated normal human stromal cells (result in words) (IL-6 production; normal human stromal cells, FIG. 5B): blocked IL-6 production
